The values that follow come from PubChem BioAssay AID1259407 (Chemical Carcinogenesis Research Information System (CCRIS), 2018).

Activity calls are given as the source filed them. The rule behind the calls is not given here.

The test system of this series is CCRIS mutagenicity, Ames/micronucleus/aberration tests. Put plainly: CCRIS mutagenicity studies.
Where [1] appears, read: Test System: AMES SALMONELLA TYPHIMURIUM, Strain/Indicator: TA98, Metabolic Activation: NONE, Method: PREINCUBATION
Where [2] appears, read: Test System: AMES SALMONELLA TYPHIMURIUM, Strain/Indicator: TA100, Metabolic Activation: NONE, Method: PREINCUBATION

For the compound `O=[N+]([O-])c1ccc2ccc3c4c(cc5ccc1c2c53)[C@H](O)[C@@H](O)C=C4`, the mutagenic call (Test System: AMES SALMONELLA TYPHIMURIUM, Strain/Indicator: TA98, Metabolic Activation: NONE) is “active; positive”; the mutagenic call (Test System: AMES SALMONELLA TYPHIMURIUM, Strain/Indicator: TA98, Metabolic Activation: RAT, LIVER, S-9, AROCLOR 1254) was “active; positive”; the mutagenic call (Test System: CHINESE HAMSTER OVARY, Strain/Indicator: CHO-K1-BH4 (HGPRT), Metabolic Activation: NONE) was “active; positive”; the mutagenic call (Test System: CHINESE HAMSTER OVARY, Strain/Indicator: CHO-K1-BH4 (HGPRT), Metabolic Activation: RAT, LIVER, S-9, 3-METHYLCHOLANTHRENE) is “active; positive”.
For `O[C@@H]1[C@H]2O[C@H]2c2c(ccc3cc4ccc5ccccc5c4nc23)[C@H]1O`, the mutagenic call under setting [1] was “active; positive”; the mutagenic call under setting [2] was “active; positive”; the mutagenic call (Test System: CHINESE HAMSTER V-79, Strain/Indicator: V-79/8-AZAGUANINE, Metabolic Activation: NONE, Method: STANDARD PLATE) was “active; positive”.
As for `CN(C)CCC(c1ccccc1)c1ccccn1` (configuration not stated), the mutagenic call is “inactive; negative” (Test System: AMES SALMONELLA TYPHIMURIUM, Strain/Indicator: TA98, Metabolic Activation: HAMSTER, LIVER, S-9, AROCLOR 1254 (10%), Method: PREINCUBATION); “inactive; negative” under setting [1]; “inactive; negative” (Test System: AMES SALMONELLA TYPHIMURIUM, Strain/Indicator: TA98, Metabolic Activation: RAT, LIVER, S-9, AROCLOR 1254 (10%), Method: PREINCUBATION); “inactive; negative” (Test System: AMES SALMONELLA TYPHIMURIUM, Strain/Indicator: TA100, Metabolic Activation: HAMSTER, LIVER, S-9, AROCLOR 1254 (10%), Method: PREINCUBATION); “inactive; negative” under setting [2]; “inactive; negative” (Test System: AMES SALMONELLA TYPHIMURIUM, Strain/Indicator: TA100, Metabolic Activation: RAT, LIVER, S-9, AROCLOR 1254 (10%), Method: PREINCUBATION). In addition, the mutagenic call was “inactive; negative” (Test System: AMES SALMONELLA TYPHIMURIUM, Strain/Indicator: TA1535, Metabolic Activation: HAMSTER, LIVER, S-9, AROCLOR 1254 (10%), Method: PREINCUBATION); “inactive; negative” (Test System: AMES SALMONELLA TYPHIMURIUM, Strain/Indicator: TA1535, Metabolic Activation: NONE, Method: PREINCUBATION); “inactive; negative” (Test System: AMES SALMONELLA TYPHIMURIUM, Strain/Indicator: TA1535, Metabolic Activation: RAT, LIVER, S-9, AROCLOR 1254 (10%), Method: PREINCUBATION); “inactive; negative” (Test System: AMES SALMONELLA TYPHIMURIUM, Strain/Indicator: TA1537, Metabolic Activation: HAMSTER, LIVER, S-9, AROCLOR 1254 (10%), Method: PREINCUBATION); “inactive; negative” (Test System: AMES SALMONELLA TYPHIMURIUM, Strain/Indicator: TA1537, Metabolic Activation: NONE, Method: PREINCUBATION); “inactive; negative” (Test System: AMES SALMONELLA TYPHIMURIUM, Strain/Indicator: TA1537, Metabolic Activation: RAT, LIVER, S-9, AROCLOR 1254 (10%), Method: PREINCUBATION).
Regarding `NCCN1CCNCC1`, the mutagenic call by setting is: under setting [1], “inactive; negative”; (Test System: AMES SALMONELLA TYPHIMURIUM, Strain/Indicator: TA98, Metabolic Activation: NONE, Method: STANDARD PLATE) “inactive; negative”; (Test System: AMES SALMONELLA TYPHIMURIUM, Strain/Indicator: TA98, Metabolic Activation: RAT, LIVER, S-9, AROCLOR 1254, Method: STANDARD PLATE) “inactive; negative”; (Test System: AMES SALMONELLA TYPHIMURIUM, Strain/Indicator: TA98, Metabolic Activation: RAT, LIVER, S-9, PCB, Method: PREINCUBATION) “inactive; negative”; under setting [2], “inactive; negative”; (Test System: AMES SALMONELLA TYPHIMURIUM, Strain/Indicator: TA100, Metabolic Activation: NONE, Method: STANDARD PLATE) “inactive; negative”. Further, the mutagenic call (Test System: AMES SALMONELLA TYPHIMURIUM, Strain/Indicator: TA100, Metabolic Activation: RAT, LIVER, S-9, AROCLOR 1254, Method: STANDARD PLATE) was “inactive; negative”; the mutagenic call (Test System: AMES SALMONELLA TYPHIMURIUM, Strain/Indicator: TA100, Metabolic Activation: RAT, LIVER, S-9, PCB, Method: PREINCUBATION) was “inactive; negative”; the mutagenic call (Test System: AMES SALMONELLA TYPHIMURIUM, Strain/Indicator: TA1535, Metabolic Activation: NONE, Method: STANDARD PLATE) is “inactive; negative”; the mutagenic call (Test System: AMES SALMONELLA TYPHIMURIUM, Strain/Indicator: TA1535, Metabolic Activation: RAT, LIVER, S-9, AROCLOR 1254, Method: STANDARD PLATE) was “inactive; negative”; the mutagenic call (Test System: AMES SALMONELLA TYPHIMURIUM, Strain/Indicator: TA1537, Metabolic Activation: NONE, Method: STANDARD PLATE) was “inactive; negative”; the mutagenic call (Test System: AMES SALMONELLA TYPHIMURIUM, Strain/Indicator: TA1537, Metabolic Activation: RAT, LIVER, S-9, AROCLOR 1254, Method: STANDARD PLATE) is “inactive; negative”. Moreover, the mutagenic call is “inactive; negative” (Test System: AMES SALMONELLA TYPHIMURIUM, Strain/Indicator: TA1538, Metabolic Activation: NONE, Method: STANDARD PLATE); “inactive; negative” (Test System: AMES SALMONELLA TYPHIMURIUM, Strain/Indicator: TA1538, Metabolic Activation: RAT, LIVER, S-9, AROCLOR 1254, Method: STANDARD PLATE); “inactive; negative” (Test System: UDS RAT HEPATOCYTES, Strain/Indicator: THY INCORP, Metabolic Activation: NONE, Method: SCINTILLATION SPECTROMETRY).
As to `COc1ccc2c(c1OC)C(=O)O[C@@H]2[C@H]1c2c(cc3c(c2OC)OCO3)CCN1C`, the mutagenic call was “active; positive (ploidy changes)” (End Point: CHROMOSOMAL ABERRATIONS, Test System: HUMAN LYMPHOCYTES, Metabolic Activation: NONE, Method: FISH); “active; positive for micronucleated, binucleated and multinucleated cells when agent adm” (End Point: In vivo micronucleus, Test System: Micronucleated, binucleated and multinucleated hepatocytes, Species: Mouse, Strain/Sex: ddY/Male, Route: Intravenous); “active; positive (aneuploidy and polyploidy)” (End Point: MICRONUCLEUS, Test System: HUMAN LYMPHOCYTES, Metabolic Activation: NONE).
